Assay results as given in ChEMBL document CHEMBL3860060, “Discovery and Optimization of 1-Phenoxy-2-aminoindanes as Potent, Selective, and Orally Bioavailable Inhibitors of the Na+/H+ Exchanger Type 3 (NHE3)” (J Med Chem, 2016).
pIC50: −log10 of the molar value.

How the values were obtained:
[1] = target: T1, Sodium/hydrogen exchanger 3 (Homo sapiens, UniProt P48764); assay: Inhibition of human NHE3 expressed in LAP1 cell assessed as intracellular pH recovery measured for 2 mins by CECF-AM dye based FLIPR assay
T1 sequence (P48764 whole entry): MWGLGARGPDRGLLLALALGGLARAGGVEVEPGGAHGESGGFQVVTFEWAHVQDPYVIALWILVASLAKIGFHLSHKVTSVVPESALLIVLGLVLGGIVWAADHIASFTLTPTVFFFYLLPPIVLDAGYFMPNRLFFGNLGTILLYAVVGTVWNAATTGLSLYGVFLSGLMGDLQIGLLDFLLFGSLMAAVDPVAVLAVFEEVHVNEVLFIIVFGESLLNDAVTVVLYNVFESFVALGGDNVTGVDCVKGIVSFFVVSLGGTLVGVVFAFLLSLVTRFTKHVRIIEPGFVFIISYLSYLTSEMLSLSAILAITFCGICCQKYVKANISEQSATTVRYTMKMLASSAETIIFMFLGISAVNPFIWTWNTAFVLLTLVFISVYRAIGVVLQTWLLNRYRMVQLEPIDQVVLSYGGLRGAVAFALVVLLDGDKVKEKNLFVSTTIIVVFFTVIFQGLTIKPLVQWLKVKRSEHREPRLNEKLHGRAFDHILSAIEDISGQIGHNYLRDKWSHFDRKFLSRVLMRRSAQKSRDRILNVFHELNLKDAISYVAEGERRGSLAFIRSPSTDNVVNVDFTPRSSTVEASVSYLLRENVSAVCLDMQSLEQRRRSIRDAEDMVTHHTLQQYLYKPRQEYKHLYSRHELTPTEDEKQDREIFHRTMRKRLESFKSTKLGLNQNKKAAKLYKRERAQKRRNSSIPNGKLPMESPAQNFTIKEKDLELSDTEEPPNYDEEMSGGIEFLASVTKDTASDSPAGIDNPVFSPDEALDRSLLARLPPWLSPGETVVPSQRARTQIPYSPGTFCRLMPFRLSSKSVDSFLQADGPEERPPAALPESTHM

[2] = Permeability in human Caco2/TC7 cells assessed as total flux at 20 uM incubated for 2 hrs by LC-MS/MS method; format: ADME, cell-based; conditions: Caco-2, read-out: permeability
CYP2D6 [3] = target: T2, CYP2D6 (Homo sapiens, UniProt P10635); assay: Inhibition of CYP2D6 in pooled human hepatic microsomes at 10 uM using dextromethorphan substrate in presence of NADPH; format: ADME; conditions: pooled human liver microsomes, probe dextromethorphan
T2 sequence (P10635 whole entry): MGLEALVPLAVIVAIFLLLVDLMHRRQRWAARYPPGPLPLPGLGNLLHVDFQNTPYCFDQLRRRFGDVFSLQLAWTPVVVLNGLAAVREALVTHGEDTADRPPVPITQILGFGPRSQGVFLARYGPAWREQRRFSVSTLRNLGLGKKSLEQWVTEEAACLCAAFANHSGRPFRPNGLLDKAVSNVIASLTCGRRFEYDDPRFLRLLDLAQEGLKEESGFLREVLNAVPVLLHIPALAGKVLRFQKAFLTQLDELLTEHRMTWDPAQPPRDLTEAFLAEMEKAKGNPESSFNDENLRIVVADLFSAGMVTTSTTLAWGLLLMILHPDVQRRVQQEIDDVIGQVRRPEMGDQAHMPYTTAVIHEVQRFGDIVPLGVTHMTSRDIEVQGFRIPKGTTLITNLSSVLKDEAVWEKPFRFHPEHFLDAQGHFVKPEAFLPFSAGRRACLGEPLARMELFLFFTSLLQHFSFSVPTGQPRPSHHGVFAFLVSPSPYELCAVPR

Cytochrome P450 2D6 = Cytochrome P450 2D6 (Homo sapiens, UniProt P10635)
Sequence of Cytochrome P450 2D6 (P10635 whole entry): as above
Description: Inhibition of CYP2D6 in pooled human hepatic microsomes using dextromethorphan substrate in presence of NADPH

Cytochrome P450 3A4 = Cytochrome P450 3A4 (Homo sapiens, UniProt P08684); assay: Inhibition of CYP3A4 in pooled human hepatic microsomes using testosterone substrate in presence of NADPH; format: ADME, Liver
Sequence of Cytochrome P450 3A4 (P08684 whole entry): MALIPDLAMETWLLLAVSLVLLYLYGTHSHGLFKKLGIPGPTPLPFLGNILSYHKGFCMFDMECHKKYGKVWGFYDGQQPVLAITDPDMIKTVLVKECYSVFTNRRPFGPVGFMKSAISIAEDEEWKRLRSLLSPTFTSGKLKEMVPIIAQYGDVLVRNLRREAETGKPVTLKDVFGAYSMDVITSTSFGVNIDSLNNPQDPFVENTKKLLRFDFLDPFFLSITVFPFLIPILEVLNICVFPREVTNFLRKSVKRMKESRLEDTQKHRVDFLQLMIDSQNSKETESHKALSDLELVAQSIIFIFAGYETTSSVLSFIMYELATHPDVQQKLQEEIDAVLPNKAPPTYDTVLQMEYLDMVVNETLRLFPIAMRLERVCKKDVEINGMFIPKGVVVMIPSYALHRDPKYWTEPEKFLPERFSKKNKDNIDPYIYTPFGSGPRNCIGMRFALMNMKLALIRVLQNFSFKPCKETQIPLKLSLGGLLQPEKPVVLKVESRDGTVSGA

CYP2D6 [4] = target: T2, CYP2D6; assay: Inhibition of CYP2D6 in pooled human hepatic microsomes assessed as remaining enzyme activity at 0.225 uM using […] substrate in presence of NADPH; format: ADME; conditions: pooled human liver microsomes, probe […], read-out: Activity

pIC50 [1]	Papp at 2 h, 20 µM [2] [×10⁻⁶ cm/s]	inhibition at 10 µM (CYP2D6 [3]) [%]	pIC50 (Cytochrome P450 2D6)	pIC50 (Cytochrome P450 3A4)	activity at 0.225 µM (CYP2D6 [4]) [%]	SMILES
7.64	0.3	25	< 5.00	–	–	Cc1nnc(C)n1-c1ccc(O[C@H]2c3cc(Cl)cc(Cl)c3C[C@@H]2N2CCCNCC2)cc1
7.47	2.8	17	< 5.00	< 4.30	–	Cc1nnc(C)n1-c1ccc(O[C@H]2c3cc(Cl)cc(Cl)c3C[C@@H]2N2CC[C@@H](O)C2)c(F)c1
–	–	–	–	–	21	C=C[C@H]1C[N@@]2CC[C@H]1C[C@@H]2[C@@H](O)c1ccnc2ccc(OC)cc12 [QUINIDINE]
